The values that follow come from patent US12578271B2, “Gram-stain differentiation with nonlinear light scattering” (Temple University—Of The Commonwealth System of Higher …, priority 2020, dated 2026).

Data set [1] relates to E. coli (mc4100 strain). Description: time-resolved second-harmonic scattering (SHS) of dye uptake by living bacteria, Gram-negative. Type of data set: cell-based. The protocol: (§1) Discrete colonies of E. coli (mc4100 strain) and L. rhamnosus ([…] strain) were grown on Luria Broth agar (Sigma-Aldrich) plates. Experimental samples, prepared from single colonies, were cultured (37° C., 150 rpm shaking) in Terrific Broth (TB, Sigma-Aldrich) to late-log/early stationary phase. Samples were lightly pelletized by centrifugation (ca. 1500 g for 2 min) and washed in 1×PBS to remove waste and residual TB. […] Final sample concentrations were maintained at 10 μM (MG) and 50 μM (CV). The 800 nm output from a Ti:sapphire laser (Coherent, […], oscillator only, 50 fs pulse duration, 4 nJ pulse energy, 76 MHz repetition rate, 0.4 W average power) was used as a fundamental light source. As depicted in FIG. 2A, SHS was measured while the sample circulated through a liquid flow system. To ensure collection of the SH signal solely from the sample, a long-pass filter (Schott, RG695) was placed in front of the focusing lens immediately before the sample jet. […] The signal was then detected by a photomultiplier (Hamamatsu, […]), amplified (Stanford Research Systems, SR440), and processed through a correlated photon counting system (Stanford Research Systems, SRS SR400). As a means of separating the surface specific SH response from the hyper-Rayleigh scattering (HRS) of the bulk dye solution, SHS was first measured from the dye solution in the absence of cells. […] To ensure rapid mixing of the suspension, in addition to circulating through the system, the contents of the sample reservoir were continuously stirred.

Data set [2] has as its system L. rhamnosus (R0011 strain). Description: time-resolved second-harmonic scattering (SHS) of dye uptake by living bacteria, Gram-positive. Type of data set: cell-based, Lactobacillus (L.) rhamnosus. The protocol:
as §1

Data set [3] deals with E. coli (mc4100 strain). Particulars: prior SHS studies, living E. coli; cited from earlier work.
The conditions of data set [4]: pH=7.2; cited from earlier work.
The mark [5] stands for this setting: E. coli added ca. 10 s, 10 μM MG, 50 μM CV, FIG. 2B.

On to `CN(C)c1ccc(C(=C2C=CC(=[N+](C)C)C=C2)c2ccccc2)cc1` [MG, malachite green], for which the “time of onset of second rise of SHS signal (dye has diffused across PM and adsorbs onto outer surface of CM)” value in the data set on E. coli (mc4100 strain) [1] (setting [5]) was “around 25 s”. Also, the “time of second decay of SHS signal (dye crosses the CM)” value with E. coli (mc4100 strain) [1] (E. coli added ca. 10 s, 10 μM MG, FIG. 2B) is recorded as approximately 120 s. Further, in data set [2] (10 μM MG, FIG. 6), the “MG uptake kinetics compared with E. coli” value is given as “nearly identical transport curves”. The “ability to cross bacterial membranes (OM, CM)” value with E. coli (mc4100 strain) [3] was “cross both the OM and CM”. The “fraction of molecules in solution that are neutral” value in data set [4] is listed as “more than 50%”.

With `CN(C)c1ccc(C(=C2C=CC(=[N+](C)C)C=C2)c2ccc(N(C)C)cc2)cc1` [CV, crystal violet], the “time of onset of second rise of SHS signal (dye has diffused across PM and adsorbs onto outer surface of CM)” value with E. coli (mc4100 strain) [1] (setting [5]) is recorded as “roughly 70 s”. Besides, the “time until which second rise of SHS signal continues to grow, then stable plateau” value in the data set with E. coli (mc4100 strain) [1] (E. coli added ca. 10 s, 50 μM CV, FIG. 2B) was “about 400 s”. In addition, the “late time SHS signal relative to HRS baseline” value with E. coli (mc4100 strain) [1] (Gram-negative cells, 50 μM CV, FIG. 4) was “positive response”; in data set [2] (Gram-positive cells, 50 μM CV, FIG. 4), “negative response”. Moreover, the “fraction of CV from the bulk extracellular solution drawn into the Gram-positive cells” value in data set [2] (50 μM CV) is reported as “ca. 30%”. Also, the “reduction of the HRS background” value in data set [2] (50 μM CV, after fast transport event, observation time 2000+ s, FIG. 4) came to 30%. Besides, in data set [2] (50 μM CV, inferred from reduction of HRS background), the “removal of CV from the bulk solution” value is reported as “ca. 15 μM”. Besides, in data set [2] (within the 2000+ s observation time, also at higher concentrations), the “second rise of SHS signal (arrival at CM)” value was “no second rise of SHS signal is ever observed”. In addition, the “ability to cross bacterial membranes (OM, CM)” value in the data set with E. coli (mc4100 strain) [3] is given as “unable to cross the bacterial CM”. In addition, in data set [4], the “fraction of molecules that are cationic” value is listed as 100%.
